{"source": "patent US6777448B2", "about": "“Veterinary compositions for the treatment of parasitic diseases” (New Pharma Research Sweden AB, priority 2000, dated 2004)", "origin": "cited, not measured here", "key": {"[1]": {"conditions": "given orally"}, "[2]": {"conditions": "delivered via injection as such"}, "[3]": {"conditions": "bloodstream of animals"}}, "note": "Where two headings read alike, the source gives them in different places.", "data": [{"compound": "O=C(Nc1ccc(Oc2ccc(Cl)cc2)c(Cl)c1)c1cc(I)cc(I)c1O", "note": "[rafoxanide, 3′-chloro-4′-(4-chlorophenoxy)-3,5-di-iodosalicylanilide]", "values": [{"measurement": "absorption", "setting": "[1]; non-gastric species", "value": 10, "unit": "%"}, {"measurement": "absorption", "setting": "[1]; ruminants", "value": "up to 50%"}, {"measurement": "solubility", "setting": "in a 1% surface-active agent composition", "value": 0.14, "unit": "%"}, {"measurement": "solubility in water", "setting": "water at 25° C.", "value": "approximately 0.005 % weight/volume"}, {"measurement": "irritation on injection", "setting": "[2]", "value": "irritating"}, {"measurement": "binding to protein in the blood", "setting": "[3]", "value": "bind strongly to protein in the blood"}, {"measurement": "persistence in the bloodstream", "setting": "[3]", "value": "persist in the bloodstream of animals"}]}]}
